# Measured values published in patent publication US9499519B2, “Fused pyrimidine compounds and use thereof” (Medivation Technologies, Inc., priority 2012, dated 2016).
# Like-named read-outs stand apart in the source and are kept apart here.
# Assays:
# [1] = system: Akt phosphorylation induced by IGF-1R; assay: Western blot analysis of Akt phosphorylation induced by IGF-1 in HT-29 cells; assay type: cell-based, Human; details: for Levels of phosphorylated AKT in treated cells (pAKT/actin): HT-29 cells, IGF-1; for p-AKT relative to levels with 0.1 nM compound: Table B2 lower part; for Normalized phosphorylated AKT (relative to actin) levels relative to 0.1 nM compound treatment: Table B2 upper part
# Protocol: Inhibition of Akt phosphorylation induced by IGF-1R was studied by western blot analysis. Human colon carcinoma HT-29 cells were seeded at a density of 8×10^4 cells/well in a 24-well plate and grown in DME/F12 media containing 10% FBS for 24 h. The cells were then depleted of serum by incubation in DME/F12 media lacking FBS for 24 h. […] […] Lysed cells were centrifuged at 13,000 rpm for 15 min and the protein concentration soluble fraction (supernatant) of each sample was determined using a BCA protein assay (Pierce).
# IGF-1R = target: T1, IGF-1R (Homo sapiens, UniProt P08069); assay: In vitro IGF-1R enzymatic assay (ADP-Glo kinase assay); assay type: biochemical; details: activated IGF-1R, 30 nM, average; for inhibition at 0.03 µM: read-out: % Inh @ 30 nM Avg
# T1 construct: purchased Millipore 14-802
# Protocol: (§1) IC50 values of the compounds of the invention against IGF-1R and IR were measured in vitro using an ADP-Glo kinase assay Kit (Promega). […] Kinase reactions in both assays were conducted at 30° C. for 20 min with increasing concentrations of compounds of the invention.
# Additional compounds of the invention were screened against activated IGF-1R.
# IR = target: T2, IR (Homo sapiens, UniProt P06213); assay: In vitro IR enzymatic assay (ADP-Glo kinase assay); assay type: biochemical; details: activated IR, 30 nM; for % Inh @ 30 nM (N1) / % Inh @ 30 nM (N2): 0.03 µM
# T2 construct: purchased Millipore 14-803
# Protocol: as §1
# Additional compounds of the invention were screened against activated IR.
# T2 sequence (P06213 28-1382): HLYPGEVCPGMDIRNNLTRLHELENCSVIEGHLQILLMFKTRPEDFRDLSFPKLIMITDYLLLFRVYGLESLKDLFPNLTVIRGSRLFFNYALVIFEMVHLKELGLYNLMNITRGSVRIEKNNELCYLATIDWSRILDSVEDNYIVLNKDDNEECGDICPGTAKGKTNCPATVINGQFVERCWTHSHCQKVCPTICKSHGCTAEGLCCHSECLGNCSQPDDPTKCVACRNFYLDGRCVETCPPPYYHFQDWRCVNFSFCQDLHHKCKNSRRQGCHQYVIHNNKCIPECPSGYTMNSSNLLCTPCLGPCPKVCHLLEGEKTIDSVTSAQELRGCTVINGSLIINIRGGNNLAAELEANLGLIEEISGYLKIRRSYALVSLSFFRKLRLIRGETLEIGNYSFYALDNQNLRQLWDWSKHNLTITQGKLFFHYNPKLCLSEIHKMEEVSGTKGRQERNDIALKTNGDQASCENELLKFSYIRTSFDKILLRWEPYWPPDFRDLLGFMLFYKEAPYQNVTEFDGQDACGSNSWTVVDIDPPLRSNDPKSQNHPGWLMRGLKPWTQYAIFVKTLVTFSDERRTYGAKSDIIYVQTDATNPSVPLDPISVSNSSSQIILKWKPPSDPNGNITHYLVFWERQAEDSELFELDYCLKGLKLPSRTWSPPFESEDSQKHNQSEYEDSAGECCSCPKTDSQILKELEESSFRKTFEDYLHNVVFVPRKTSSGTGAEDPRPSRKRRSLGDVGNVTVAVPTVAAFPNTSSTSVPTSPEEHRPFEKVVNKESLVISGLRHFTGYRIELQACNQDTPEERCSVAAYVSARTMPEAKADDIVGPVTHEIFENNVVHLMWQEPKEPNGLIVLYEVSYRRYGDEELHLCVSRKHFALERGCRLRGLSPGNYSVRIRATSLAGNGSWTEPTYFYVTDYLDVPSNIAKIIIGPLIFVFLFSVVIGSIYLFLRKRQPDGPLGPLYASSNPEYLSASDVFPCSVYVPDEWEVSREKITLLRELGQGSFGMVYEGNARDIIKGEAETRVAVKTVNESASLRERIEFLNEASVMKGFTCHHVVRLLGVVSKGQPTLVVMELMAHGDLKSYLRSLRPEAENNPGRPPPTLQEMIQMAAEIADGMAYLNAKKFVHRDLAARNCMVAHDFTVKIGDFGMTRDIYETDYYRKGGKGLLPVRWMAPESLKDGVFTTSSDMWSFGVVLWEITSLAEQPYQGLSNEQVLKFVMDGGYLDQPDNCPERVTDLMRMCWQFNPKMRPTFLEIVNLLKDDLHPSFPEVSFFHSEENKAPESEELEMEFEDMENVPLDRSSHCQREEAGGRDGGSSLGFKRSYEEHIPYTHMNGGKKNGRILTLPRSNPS
# T1 sequence (P08069 31-1367): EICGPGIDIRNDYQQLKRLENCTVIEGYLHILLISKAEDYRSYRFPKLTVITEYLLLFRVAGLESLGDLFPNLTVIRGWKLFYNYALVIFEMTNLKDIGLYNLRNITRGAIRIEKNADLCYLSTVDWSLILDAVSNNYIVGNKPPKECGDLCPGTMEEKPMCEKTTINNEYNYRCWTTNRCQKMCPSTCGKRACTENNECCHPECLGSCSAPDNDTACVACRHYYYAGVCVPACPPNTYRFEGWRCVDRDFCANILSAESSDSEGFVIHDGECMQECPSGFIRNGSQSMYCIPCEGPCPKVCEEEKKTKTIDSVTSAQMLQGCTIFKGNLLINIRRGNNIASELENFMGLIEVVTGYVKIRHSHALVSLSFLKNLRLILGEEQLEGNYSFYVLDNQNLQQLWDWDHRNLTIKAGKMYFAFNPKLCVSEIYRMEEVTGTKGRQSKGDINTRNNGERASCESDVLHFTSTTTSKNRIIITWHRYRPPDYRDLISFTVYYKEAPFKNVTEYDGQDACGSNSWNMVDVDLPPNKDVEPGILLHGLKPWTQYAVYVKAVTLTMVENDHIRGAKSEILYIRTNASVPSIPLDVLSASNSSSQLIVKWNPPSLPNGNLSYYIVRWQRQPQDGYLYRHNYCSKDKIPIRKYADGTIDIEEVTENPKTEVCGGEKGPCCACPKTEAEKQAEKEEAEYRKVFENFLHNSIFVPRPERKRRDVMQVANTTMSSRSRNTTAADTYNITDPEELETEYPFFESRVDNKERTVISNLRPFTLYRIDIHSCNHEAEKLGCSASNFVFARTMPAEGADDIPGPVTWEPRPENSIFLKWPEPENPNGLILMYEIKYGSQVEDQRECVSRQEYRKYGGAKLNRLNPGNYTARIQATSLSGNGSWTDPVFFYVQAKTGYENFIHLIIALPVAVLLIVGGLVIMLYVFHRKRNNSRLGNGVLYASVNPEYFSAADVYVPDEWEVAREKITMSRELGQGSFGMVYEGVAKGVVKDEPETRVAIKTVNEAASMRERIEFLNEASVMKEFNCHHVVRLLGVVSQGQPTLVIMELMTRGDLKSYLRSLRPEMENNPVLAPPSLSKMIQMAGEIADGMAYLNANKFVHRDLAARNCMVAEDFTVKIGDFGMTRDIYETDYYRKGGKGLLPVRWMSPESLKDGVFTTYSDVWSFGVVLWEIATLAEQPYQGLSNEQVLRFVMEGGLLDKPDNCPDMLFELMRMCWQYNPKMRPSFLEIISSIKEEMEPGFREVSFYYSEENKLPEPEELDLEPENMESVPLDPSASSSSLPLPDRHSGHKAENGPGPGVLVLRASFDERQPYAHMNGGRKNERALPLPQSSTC
% Inh @ 30 nM Avg (IGF-1R) [%],% Inh @ 30 nM (N1) (IR; N1) [%],% Inh @ 30 nM (N2) (IR; N2) [%],% Inh @ 30 nM Avg (IR; average) [%],"inhibition at 0.03 µM (IR; N1, read-out: % Inh @ 30 nM (N1)) [%]","inhibition at 0.03 µM (IR; N2, read-out: % Inh @ 30 nM (N2)) [%]","inhibition at 0.03 µM (IR; average, read-out: % Inh @ 30 nM Avg) [%]",inhibition at 0.03 µM (IGF-1R) [%],SMILES,Levels of phosphorylated AKT in treated cells (pAKT/actin) ([1]; 0.1 nM compound),p-AKT relative to levels with 0.1 nM compound ([1]; 0.1 nM),Normalized phosphorylated AKT (relative to actin) levels relative to 0.1 nM compound treatment ([1]; 0.1 nM),Levels of phosphorylated AKT in treated cells (pAKT/actin) ([1]; 1 nM compound),p-AKT relative to levels with 0.1 nM compound ([1]; 1 nM),Normalized phosphorylated AKT (relative to actin) levels relative to 0.1 nM compound treatment ([1]; 1 nM),Levels of phosphorylated AKT in treated cells (pAKT/actin) ([1]; 10 nM compound),p-AKT relative to levels with 0.1 nM compound ([1]; 10 nM),Normalized phosphorylated AKT (relative to actin) levels relative to 0.1 nM compound treatment ([1]; 10 nM),Levels of phosphorylated AKT in treated cells (pAKT/actin) ([1]; 100 nM compound),p-AKT relative to levels with 0.1 nM compound ([1]; 100 nM),Normalized phosphorylated AKT (relative to actin) levels relative to 0.1 nM compound treatment ([1]; 100 nM)
−11,,,,,,,,"O=C(Nc1ccc(F)nc1)C1CC(O)CN1c1nc2c(c(Nc3cc(C4CC4)[nH]n3)n1)CCC2 (racemic) [Compound 10b, 1-(4-(5-cyclopropyl-1H-pyrazol-3-ylamino)-6,7-dihydro-5H-cyclopenta[d]pyrimidin-2-yl)-N-(6-fluoropyridin-3-yl)-4-hydroxypyrrolidine-2-carboxamide]",2.21,1.0,1.0,2.75,1.2,1.2,1.71,0.8,0.8,1.66,0.8,0.8
15,,,,,,,,"O=C(Nc1ccc(F)nc1)C1CC(O)CN1c1nc2c(c(Nc3cc(C4CC4)[nH]n3)n1)CCC2 (racemic) [Compound 10c, 1-(4-(5-cyclopropyl-1H-pyrazol-3-ylamino)-6,7-dihydro-5H-cyclopenta[d]pyrimidin-2-yl)-N-(6-fluoropyridin-3-yl)-4-hydroxypyrrolidine-2-carboxamide]",,,,,,,,,,,,
,−17,−9,−13,,,,,"O=C(Nc1ccc(F)nc1)[C@H]1[C@@H](O)CCN1c1nc2c(c(Nc3cc(C4CC4)[nH]n3)n1)CCC2 (single isomer, unassigned) [Compound 11a]",1.83,1.0,1.0,1.55,0.8,0.8,1.43,0.8,0.8,1.58,0.9,0.9
,,,,10,8,9,,"CC(C)c1cc(Nc2nc(N3CCC[C@@H]3C(=O)Nc3ccc(F)nc3)nc3c2CCC3)on1 (single isomer, unassigned) [Compound 12a]",4.17,1.0,1.0,3.33,0.8,0.8,2.91,0.7,0.7,4.16,1.0,1.0
,−2,4,1,,,,,"O=C(Nc1ccc(F)nc1)C1CCCN1c1nc2c(c(Nc3cc(C4CCCC4)[nH]n3)n1)CCCC2 (single isomer, unassigned) [Compound 15a, 1-(4-(5-cyclopentyl-1H-pyrazol-3-ylamino)-5,6,7,8-tetrahydroquinazolin-2-yl)-N-(6-fluoropyridin-3-yl)pyrrolidine-2-carboxamide]",0.70,1.0,1.0,0.89,1.3,1.3,0.92,1.3,1.3,0.59,0.8,0.8
,,,,,,,14,"COC1CC(C(=O)Nc2ccc(F)nc2)N(c2nc3c(c(Nc4cc(C5CC5)[nH]n4)n2)CCC3)C1 (single isomer, unassigned) [Compound 21a, 1-(4-(5-cyclopropyl-1H-pyrazol-3-ylamino)-6,7-dihydro-5H-cyclopenta[d]pyrimidin-2-yl)-N-(6-fluoropyridin-3-yl)-4-methoxypyrrolidine-2-carboxamide]",,,,,,,,,,,,
,,,,,,,41,"COC1CC(C(=O)Nc2ccc(F)nc2)N(c2nc3c(c(Nc4cc(C5CC5)[nH]n4)n2)CCC3)C1 (single isomer, unassigned) [Compound 21b, 1-(4-(5-cyclopropyl-1H-pyrazol-3-ylamino)-6,7-dihydro-5H-cyclopenta[d]pyrimidin-2-yl)-N-(6-fluoropyridin-3-yl)-4-methoxypyrrolidine-2-carboxamide]",,,,,,,,,,,,

# Further lines, the molecule ahead of its results:
SMILES,% Inh @ 30 nM Avg (IGF-1R) [%],% Inh @ 30 nM (N1) (IR; N1) [%],% Inh @ 30 nM (N2) (IR; N2) [%],% Inh @ 30 nM Avg (IR; average) [%],"inhibition at 0.03 µM (IR; N1, read-out: % Inh @ 30 nM (N1)) [%]","inhibition at 0.03 µM (IR; N2, read-out: % Inh @ 30 nM (N2)) [%]","inhibition at 0.03 µM (IR; average, read-out: % Inh @ 30 nM Avg) [%]",inhibition at 0.03 µM (IGF-1R) [%],Levels of phosphorylated AKT in treated cells (pAKT/actin) ([1]; 0.1 nM compound),p-AKT relative to levels with 0.1 nM compound ([1]; 0.1 nM),Normalized phosphorylated AKT (relative to actin) levels relative to 0.1 nM compound treatment ([1]; 0.1 nM),Levels of phosphorylated AKT in treated cells (pAKT/actin) ([1]; 1 nM compound),p-AKT relative to levels with 0.1 nM compound ([1]; 1 nM),Normalized phosphorylated AKT (relative to actin) levels relative to 0.1 nM compound treatment ([1]; 1 nM),Levels of phosphorylated AKT in treated cells (pAKT/actin) ([1]; 10 nM compound),p-AKT relative to levels with 0.1 nM compound ([1]; 10 nM),Normalized phosphorylated AKT (relative to actin) levels relative to 0.1 nM compound treatment ([1]; 10 nM),Levels of phosphorylated AKT in treated cells (pAKT/actin) ([1]; 100 nM compound),p-AKT relative to levels with 0.1 nM compound ([1]; 100 nM),Normalized phosphorylated AKT (relative to actin) levels relative to 0.1 nM compound treatment ([1]; 100 nM)
"O=C(Nc1ccc(F)nc1)C1CCCN1c1nc2c(c(Nc3cc(C4CC4)[nH]n3)n1)CCCC2 (single isomer, unassigned) [Compound 14a, 1-(4-(5-cyclopropyl-1H-pyrazol-3-ylamino)-5,6,7,8-tetrahydroquinazolin-2-yl)-N-(6-fluoropyridin-3-yl)pyrrolidine-2-carboxamide]",,,,,,,,,0.73,1.0,1.0,0.51,0.7,0.7,0.43,0.6,0.6,0.35,0.5,0.5
"O=C(Nc1ccc(F)nc1)C1CCCN1c1nc2c(c(Nc3cc(C4CC4)[nH]n3)n1)CCCC2 (single isomer, unassigned) [Compound 14b, 1-(4-(5-cyclopropyl-1H-pyrazol-3-ylamino)-5,6,7,8-tetrahydroquinazolin-2-yl)-N-(6-fluoropyridin-3-yl)pyrrolidine-2-carboxamide]",,,,,,,,,0.51,1.0,1.0,0.49,0.9,0.9,0.02,0.0,0.0,0.00,0.0,0.0
"O=C(Nc1ccc(F)nc1)C1CCCCN1c1nc2c(c(Nc3cc(C4CCCC4)[nH]n3)n1)CCC2 (single isomer, unassigned) [Compound 17a, 1-(4-(5-cyclopentyl-1H-pyrazol-3-ylamino)-6,7-dihydro-5H-cyclopenta[d]pyrimidin-2-yl)-N-(6-fluoropyridin-3-yl)piperidine-2-carboxamide]",,,,,,,,,0.89,1.0,1.0,1.22,1.4,1.4,1.01,1.1,1.1,1.08,1.2,1.2
"CC1(O)CC(c2nc(-c3ccc4ccc(-c5ccccc5)nc4c3)c3c(N)nccn23)C1 (centres unmarked) [OSI-906, 3-[8-Amino-1-(2-phenyl-7-quinolyl)imidazo[1,5-a]pyrazin-3-yl]-1-methyl-cyclobutanol, reference compound]",,,,,,,,,1.06,,,0.85,,,1.58,,,0.40,,
